Measurements as given in US20240132498A1, “CRYSTALLINE FORMS OF 5-(3,4-DIFLUOROBENZYL)-8-((1R,4R)-4-METHYLCYCLOHEXYL)-6,9-DIOXO-2,5,8-TRIAZASPIRO[3.5]NONANE-2-CARBALDEHYDE” (Cytokinetics, Incorporated, priority 2022, published 2024).
Entries after “also recorded” stand apart in the source; their conditions may differ.

Tests used:
CYP1A2 = target: T1, CYP1A2 (Homo sapiens, UniProt P05177); test: Time-dependent inhibition of CYP450 enzymes in human liver microsomes: CYP1A2; type: in vitro ADME
T1 construct: from tissue; host or cells: pooled human liver microsomes
T1 sequence (P05177 1-516): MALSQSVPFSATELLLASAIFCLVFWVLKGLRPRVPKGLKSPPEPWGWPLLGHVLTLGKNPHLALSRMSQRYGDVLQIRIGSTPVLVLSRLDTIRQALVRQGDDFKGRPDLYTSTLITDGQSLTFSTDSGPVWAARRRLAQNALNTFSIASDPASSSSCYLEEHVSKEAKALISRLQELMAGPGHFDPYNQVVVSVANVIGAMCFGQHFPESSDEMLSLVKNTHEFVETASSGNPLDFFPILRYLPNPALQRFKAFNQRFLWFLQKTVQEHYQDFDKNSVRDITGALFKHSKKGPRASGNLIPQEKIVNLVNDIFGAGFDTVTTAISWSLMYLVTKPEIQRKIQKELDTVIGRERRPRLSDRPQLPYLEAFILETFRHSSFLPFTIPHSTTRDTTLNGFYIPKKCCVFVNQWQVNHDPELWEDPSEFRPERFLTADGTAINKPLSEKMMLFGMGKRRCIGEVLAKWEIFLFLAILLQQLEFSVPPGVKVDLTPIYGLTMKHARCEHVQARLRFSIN
Description: (§1) An assessment of the time-dependent Inhibitory Potential of the test compounds against Principal Human Cytochrome P450 Isozymes using Human Liver Microsomes was also carried out using standard methods (Grimm et al, Drug Metab. Dispos., Jul; 37(7):1355-70. doi: 10.1124/dmd.109.026716, 2009). Pooled human microsomes and selective CYP probe substrates were used for in vitro assessment of test compounds at 25 and 50 μM as time-dependent inhibitors of […] human hepatic cytochrome P450 isozymes (CYP1A2, 2B6, 2C9, 2C19, 2D6, and 3A4). LC-MS/MS was used to quantify metabolite formation. The inhibition of each P450 enzyme in human liver microsomes was measured as the percentage decrease in the activity of marker metabolite formation as measured by LC-MS/MS compared to non-inhibited controls (=100% activity) at time zero and after 30 minutes incubation. The occurrence of any time dependent inhibition was then expressed as the fold change in enzyme activity at time zero relative to the activity after 30 minutes incubation. The time dependent inhibition for the compound 5-(3,4-difluorobenzyl)-8-((1 r,4r)-4-methylcyclohexyl)-6,9-dioxo-2,5, 8-triazaspiro [3.5]nonane-2-carbaldehyde (Compound 1) against CYP1A2, […], CYP2C8, CYP2C9, CYP2C19, CYP2D6, CYP3A4-M and CYP3A4-T is shown in Table B-12.

CYP2C8 = target: T2, CYP2C8 (Homo sapiens, UniProt P10632); test: Time-dependent inhibition of CYP450 enzymes in human liver microsomes: CYP2C8; type: in vitro ADME
T2 construct: from tissue; host or cells: pooled human liver microsomes
T2 sequence (P10632 1-490): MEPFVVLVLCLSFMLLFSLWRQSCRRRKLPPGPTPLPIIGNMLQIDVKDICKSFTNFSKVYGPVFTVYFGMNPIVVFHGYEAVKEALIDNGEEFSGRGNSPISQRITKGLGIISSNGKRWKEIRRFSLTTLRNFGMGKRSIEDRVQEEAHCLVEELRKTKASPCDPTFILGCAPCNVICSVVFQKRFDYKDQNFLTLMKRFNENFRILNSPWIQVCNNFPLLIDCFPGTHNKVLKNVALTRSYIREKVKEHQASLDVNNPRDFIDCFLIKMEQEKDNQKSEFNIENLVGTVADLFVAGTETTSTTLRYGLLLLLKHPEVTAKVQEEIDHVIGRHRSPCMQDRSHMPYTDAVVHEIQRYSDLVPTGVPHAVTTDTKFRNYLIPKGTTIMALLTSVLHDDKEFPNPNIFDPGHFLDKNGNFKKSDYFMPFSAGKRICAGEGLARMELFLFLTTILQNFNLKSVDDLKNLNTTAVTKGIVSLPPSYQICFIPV
Description: as §1

[1] = Stability of Form II in solvents after 24 hours (HPLC); type: physicochemical; conditions: for Form II Peak Area T = 24 hours: 24 hours at ambient (25° C.); for Form II Peak Area: initial injection; for Visual Observations (signs of degradation in chromatograms): initial vs T = 24 hours;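 as to Form II Peak Area T = 24 hours: same diluted solubility sample reinjected at the initial injection volume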
Text: The chromatograms were then overlayed and visual signs of degradation were noted, i.e., loss of compound 1 peak area or increase of other peaks in the chromatography.

C[C@H]1CC[C@H](N2CC(=O)N(Cc3ccc(F)c(F)c3)C3(CN(C=O)C3)C2=O)CC1 [Compound 1, 5-(3,4-difluorobenzyl)-8-((1r,4r)-4-methylcyclohexyl)-6,9-dioxo-2,5,8-triazaspiro[3.5]nonane-2-carbaldehyde]
(% Activity NADPH T0)/(% Activity NADPH T30) (CYP1A2; CYP1A2, 25 μM): 1.1
(% Activity NADPH T0)/(% Activity NADPH T30) (CYP1A2; CYP1A2, 50 μM): 1.0
activity at 30 min, 25 µM (CYP1A2; human, pooled human liver microsomes, CYP1A2, 25 μM, 30 minutes incubation, read-out: % Activity NADPH T30): 90%
activity at 0 min, 25 µM (CYP1A2; human, pooled human liver microsomes, CYP1A2, 25 μM, time zero, read-out: % Activity NADPH T0): 95%
activity at 30 min, 50 µM (CYP1A2; human, pooled human liver microsomes, CYP1A2, 50 μM, 30 minutes incubation, read-out: % Activity NADPH T30): 85%
activity at 0 min, 50 µM (CYP1A2; human, pooled human liver microsomes, CYP1A2, 50 μM, time zero, read-out: % Activity NADPH T0): 86%
(% Activity NADPH T0)/(% Activity NADPH T30) (CYP2C8; CYP2C8, 25 μM): 1.0
(% Activity NADPH T0)/(% Activity NADPH T30) (CYP2C8; CYP2C8, 50 μM): 1.2
activity at 30 min, 25 µM (CYP2C8; human, pooled human liver microsomes, CYP2C8, 25 μM, 30 minutes incubation, read-out: % Activity NADPH T30): 80%
activity at 0 min, 25 µM (CYP2C8; human, pooled human liver microsomes, CYP2C8, 25 μM, time zero, read-out: % Activity NADPH T0): 79%
activity at 30 min, 50 µM (CYP2C8; human, pooled human liver microsomes, CYP2C8, 50 μM, 30 minutes incubation, read-out: % Activity NADPH T30): 79%
activity at 0 min, 50 µM (CYP2C8; human, pooled human liver microsomes, CYP2C8, 50 μM, time zero, read-out: % Activity NADPH T0): 97%

C[C@H]1CC[C@H](N2CC(=O)N(Cc3ccc(F)c(F)c3)C3(CN(C=O)C3)C2=O)CC1 [Form II, 5-(3,4-difluorobenzyl)-8-((1r,4r)-4-methylcyclohexyl)-6,9-dioxo-2,5,8-triazaspiro[3.5]nonane-2-carbaldehyde]
Form II Peak Area T = 24 hours ([1]; 2-BuOH): 35.2
Form II Peak Area ([1]; 2-BuOH): 35.3
Visual Observations (signs of degradation in chromatograms) ([1]; 2-BuOH): No sign of degradation
Form II Peak Area T = 24 hours ([1]; 2-Me-THF): 51.5
Form II Peak Area ([1]; 2-Me-THF): 51.7
Visual Observations (signs of degradation in chromatograms) ([1]; 2-Me-THF): No sign of degradation
Form II Peak Area T = 24 hours ([1]; Acetone): 167.7
Form II Peak Area ([1]; Acetone): 166.0
Visual Observations (signs of degradation in chromatograms) ([1]; Acetone): no visual signs of further degradation; also recorded: No sign of degradation
Form II Peak Area T = 24 hours ([1]; DI Water): 10.8
Form II Peak Area ([1]; DI Water): 10.8
Visual Observations (signs of degradation in chromatograms) ([1]; DI Water): No sign of degradation
Form II Peak Area T = 24 hours ([1]; DMSO): 194.2
Form II Peak Area ([1]; DMSO): 193.2
Visual Observations (signs of degradation in chromatograms) ([1]; DMSO): no visual signs of further degradation; also recorded: No sign of degradation
Form II Peak Area T = 24 hours ([1]; EtOH): 54.7
Form II Peak Area ([1]; EtOH): 53.1
Visual Observations (signs of degradation in chromatograms) ([1]; EtOH): did not appear to degrade further; also recorded: Late eluting impurity peak, present
Form II Peak Area T = 24 hours ([1]; IPA): 30.5
Form II Peak Area ([1]; IPA): 30.3
Visual Observations (signs of degradation in chromatograms) ([1]; IPA): No sign of degradation
Form II Peak Area T = 24 hours ([1]; Isopropyl acetate): 66.3
Form II Peak Area ([1]; Isopropyl acetate): 66.6
Visual Observations (signs of degradation in chromatograms) ([1]; Isopropyl acetate): did not seem to degrade further; also recorded: Impurities eluting after compound 1
Form II Peak Area T = 24 hours ([1]; MIBK): 85.1
Form II Peak Area ([1]; MIBK): 85.1
Visual Observations (signs of degradation in chromatograms) ([1]; MIBK): No sign of degradation
Form II Peak Area T = 24 hours ([1]; MeCN): 190.4
Form II Peak Area ([1]; MeCN): 188.0
Visual Observations (signs of degradation in chromatograms) ([1]; MeCN): no visual signs of further degradation; also recorded: No sign of degradation
Form II Peak Area T = 24 hours ([1]; MeOH): 202.1
Form II Peak Area ([1]; MeOH): 199.0
Visual Observations (signs of degradation in chromatograms) ([1]; MeOH): no visual signs of further degradation; also recorded: No sign of degradation
Form II Peak Area T = 24 hours ([1]; THF): 177.4
Form II Peak Area ([1]; THF): 177.3
Visual Observations (signs of degradation in chromatograms) ([1]; THF): no visual signs of further degradation; also recorded: No sign of degradation
Form II Peak Area T = 24 hours ([1]; Tert-Butylmetyl ether): 24.7
Form II Peak Area ([1]; Tert-Butylmetyl ether): 24.2
Visual Observations (signs of degradation in chromatograms) ([1]; Tert-Butylmetyl ether): Large impurity peak eluting after
Form II Peak Area T = 24 hours ([1]; Toluene): 40.5
Form II Peak Area ([1]; Toluene): 41.2
Visual Observations (signs of degradation in chromatograms) ([1]; Toluene): No sign of degradation
